This passage reports Dmax, remaining activity and DC50 results from patent publication US11787785B2 (NOVARTIS AG, priority 2021, dated 2023).

The assay concerns the target T1, WIZ protein (HiBit-WIZ fusion protein) (Homo sapiens, UniProt O95785+Q96SW2).
T1 construct: expressed in transfected cells
Briefly: Quantification of WIZ protein levels in HiBit tag fusion protein assay (WIZ HiBit assay in 293T cells). It counts as cell-based. The settings on record: for Dmax at 25 µM / remaining activity at 25 µM: HEK-293T, 293T cells; for Dmax at 25 µM: 100 − Amax, read-out: % degradation of WIZ (100 − Amax); for remaining activity at 25 µM: DMSO-normalized, curve-fitted percentage of WIZ-HiBit remaining at 25 uM, read-out: WIZ Amax; for DC50: WIZ HiBit assay in 293T cells, 10-point, 5-fold dose response, highest concentration 25 μM, about 18 hours, read-out: WIZ AC50. An outline of the steps:
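HiBit-tagged WIZ (N-terminal tag, HSVTK promoter) stably expressed single-copy in 293T cells; 10-point 1:5 compound series, top 25 μM, ~18 h at 37 °C. Lytic HiBit/LgBit luminescence read; Amax = curve-fitted % WIZ-HiBit remaining at 25 μM, DMSO normalized to 100%.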

T1 sequence (O95785 whole entry, the tested form may be a part): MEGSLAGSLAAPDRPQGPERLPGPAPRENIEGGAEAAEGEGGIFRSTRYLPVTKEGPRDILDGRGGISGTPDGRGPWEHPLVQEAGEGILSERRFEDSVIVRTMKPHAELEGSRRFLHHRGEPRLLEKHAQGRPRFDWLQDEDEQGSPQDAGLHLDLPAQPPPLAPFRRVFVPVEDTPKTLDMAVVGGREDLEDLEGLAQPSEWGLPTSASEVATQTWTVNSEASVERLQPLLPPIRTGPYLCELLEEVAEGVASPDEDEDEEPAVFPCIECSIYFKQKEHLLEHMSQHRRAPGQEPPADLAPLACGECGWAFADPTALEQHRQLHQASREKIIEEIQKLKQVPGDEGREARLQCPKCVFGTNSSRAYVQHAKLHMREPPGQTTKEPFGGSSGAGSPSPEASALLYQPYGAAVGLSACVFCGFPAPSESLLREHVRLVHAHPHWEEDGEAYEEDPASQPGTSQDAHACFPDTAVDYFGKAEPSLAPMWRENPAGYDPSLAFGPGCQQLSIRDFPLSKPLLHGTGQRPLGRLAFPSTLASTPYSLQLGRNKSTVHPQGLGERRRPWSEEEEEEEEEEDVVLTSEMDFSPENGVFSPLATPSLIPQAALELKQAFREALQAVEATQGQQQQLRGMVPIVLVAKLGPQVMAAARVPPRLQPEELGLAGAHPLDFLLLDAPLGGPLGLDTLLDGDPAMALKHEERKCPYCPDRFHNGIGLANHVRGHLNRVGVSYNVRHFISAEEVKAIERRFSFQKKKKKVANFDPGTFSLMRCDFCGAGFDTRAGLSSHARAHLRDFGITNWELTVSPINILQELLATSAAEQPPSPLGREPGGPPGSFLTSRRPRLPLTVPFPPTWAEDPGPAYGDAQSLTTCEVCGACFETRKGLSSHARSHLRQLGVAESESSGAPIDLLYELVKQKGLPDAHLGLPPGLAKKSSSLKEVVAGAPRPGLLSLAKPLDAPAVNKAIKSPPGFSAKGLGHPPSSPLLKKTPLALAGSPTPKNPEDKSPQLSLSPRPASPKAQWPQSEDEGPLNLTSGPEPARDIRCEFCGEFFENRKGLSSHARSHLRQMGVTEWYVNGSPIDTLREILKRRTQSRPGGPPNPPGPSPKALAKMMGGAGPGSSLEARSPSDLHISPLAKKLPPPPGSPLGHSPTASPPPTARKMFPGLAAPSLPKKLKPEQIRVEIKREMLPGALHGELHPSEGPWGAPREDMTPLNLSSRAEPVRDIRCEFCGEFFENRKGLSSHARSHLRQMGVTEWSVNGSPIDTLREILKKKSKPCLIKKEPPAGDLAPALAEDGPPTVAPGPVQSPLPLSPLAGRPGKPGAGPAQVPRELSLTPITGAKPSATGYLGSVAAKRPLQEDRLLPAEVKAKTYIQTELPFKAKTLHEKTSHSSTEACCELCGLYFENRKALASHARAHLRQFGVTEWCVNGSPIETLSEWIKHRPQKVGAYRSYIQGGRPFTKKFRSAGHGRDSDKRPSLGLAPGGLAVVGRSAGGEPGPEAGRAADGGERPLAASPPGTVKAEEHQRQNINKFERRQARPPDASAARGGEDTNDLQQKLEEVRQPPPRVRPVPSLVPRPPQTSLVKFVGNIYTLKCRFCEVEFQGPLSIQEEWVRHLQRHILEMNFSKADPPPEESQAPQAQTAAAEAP
T1 sequence (Q96SW2 whole entry, the tested form may be a part): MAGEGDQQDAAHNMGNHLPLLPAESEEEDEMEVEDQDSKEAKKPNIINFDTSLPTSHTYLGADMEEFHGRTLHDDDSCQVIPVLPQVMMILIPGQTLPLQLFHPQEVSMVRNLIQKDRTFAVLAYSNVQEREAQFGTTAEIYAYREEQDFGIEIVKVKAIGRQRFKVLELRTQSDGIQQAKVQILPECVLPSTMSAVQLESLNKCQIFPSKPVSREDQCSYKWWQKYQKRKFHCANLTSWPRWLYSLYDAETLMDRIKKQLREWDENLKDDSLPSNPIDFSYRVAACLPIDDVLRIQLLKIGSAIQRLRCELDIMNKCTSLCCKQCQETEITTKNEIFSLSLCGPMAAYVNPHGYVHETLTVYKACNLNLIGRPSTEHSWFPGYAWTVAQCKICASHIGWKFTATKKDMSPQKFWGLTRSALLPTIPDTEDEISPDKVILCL
T1 sequence (Q16531 whole entry partner, the tested form may be a part): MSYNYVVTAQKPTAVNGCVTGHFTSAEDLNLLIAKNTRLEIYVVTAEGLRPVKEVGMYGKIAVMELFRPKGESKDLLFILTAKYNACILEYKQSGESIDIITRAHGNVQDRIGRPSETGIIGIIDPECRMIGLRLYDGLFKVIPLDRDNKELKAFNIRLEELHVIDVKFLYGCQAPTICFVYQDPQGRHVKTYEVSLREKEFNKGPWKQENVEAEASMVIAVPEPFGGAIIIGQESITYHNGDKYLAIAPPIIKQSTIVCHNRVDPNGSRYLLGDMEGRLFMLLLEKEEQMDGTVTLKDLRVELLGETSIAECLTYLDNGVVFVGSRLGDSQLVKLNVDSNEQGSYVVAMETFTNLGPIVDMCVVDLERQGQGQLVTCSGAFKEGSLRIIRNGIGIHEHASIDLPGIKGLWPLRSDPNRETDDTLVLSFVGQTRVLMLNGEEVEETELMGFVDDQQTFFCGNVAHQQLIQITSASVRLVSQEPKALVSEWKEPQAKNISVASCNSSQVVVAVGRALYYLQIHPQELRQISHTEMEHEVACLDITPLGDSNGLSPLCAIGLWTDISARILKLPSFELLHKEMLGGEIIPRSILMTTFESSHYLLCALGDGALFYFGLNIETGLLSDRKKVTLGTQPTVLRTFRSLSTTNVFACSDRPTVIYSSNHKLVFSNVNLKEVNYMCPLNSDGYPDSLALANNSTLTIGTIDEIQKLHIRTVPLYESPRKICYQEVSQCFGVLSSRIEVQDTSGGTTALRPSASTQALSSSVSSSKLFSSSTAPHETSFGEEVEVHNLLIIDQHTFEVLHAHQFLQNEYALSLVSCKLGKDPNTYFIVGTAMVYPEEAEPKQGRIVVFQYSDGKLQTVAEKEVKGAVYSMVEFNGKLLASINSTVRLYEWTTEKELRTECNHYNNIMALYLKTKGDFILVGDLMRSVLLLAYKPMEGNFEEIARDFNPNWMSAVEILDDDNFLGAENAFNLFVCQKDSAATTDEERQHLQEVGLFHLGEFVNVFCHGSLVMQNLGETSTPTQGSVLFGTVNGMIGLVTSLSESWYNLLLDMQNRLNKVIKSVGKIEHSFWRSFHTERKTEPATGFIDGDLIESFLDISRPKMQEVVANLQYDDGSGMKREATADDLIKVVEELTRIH

For the molecule `C[C@H]1C[C@H](Cc2ccn3ncc(N4CCC(=O)NC4=O)c3c2)CCN1C1COC1` [Example 279, 1-(5-(((2S,4R)-2-methyl-1-(oxetan-3-yl)piperidin-4-yl)methyl)pyrazolo[1,5-a]pyridin-3-yl)dihydropyrimidine-2,4(1H,3H)-dione], the Dmax at 25 µM worked out at 91%, the remaining activity at 25 µM was determined as 9% and the DC50 is 26 nM.
For `CC(C)C(=O)N1CC[C@@H](Cc2ccn3ncc(N4CCC(=O)NC4=O)c3c2)C[C@@H]1C` [Example 288] the same measures were 80%, 20% and 8 nM.
As for `O=C1CCN(c2cnn3ccc(CN4CCN(CC5(C(F)(F)F)CC5)CC4)cc23)C(=O)N1` [Example 172], the Dmax at 25 µM is 42%, the remaining activity at 25 µM turned out to be 58% and the DC50 was 527 nM.
For `COc1cn(-c2cnn3ccc(CN4CCN(CC(C)C)[C@@H](C)C4)cc23)c(=O)[nH]c1=O` [Example 360, (S)-1-(5-((4-isobutyl-3-methylpiperazin-1-yl)methyl)pyrazolo[1,5-a]pyridin-3-yl)-5-methoxypyrimidine-2,4(1H,3H)-dione] the same measures were 24%, 76% and more than 25000 nM.
Regarding `CC(C)(C)OC(=O)N1CCC(Cc2ccn3ncc(N4CCC(=O)NC4=O)c3c2)CC1` [Example 97, tert-butyl 4-((3-(2,4-dioxotetrahydropyrimidin-1(2H)-yl)pyrazolo[1,5-a]pyridin-5-yl)methyl)piperidine-1-carboxylate], the Dmax at 25 µM came out at 44%, the remaining activity at 25 µM came to 56% and the DC50 is 24800 nM.
As to `C[C@H]1CN(CC2CCC2)CCN1Cc1ccn2ncc(N3CCC(=O)NC3=O)c2c1` [Example 224], the Dmax at 25 µM turned out to be 45%, the remaining activity at 25 µM came to 55% and the DC50 stood at 854 nM.
In the same order, the values of `O=C1CCN(c2cnn3ccc(CC4CCN(CC5CCC5)CC4)cc23)C(=O)N1` [Example 18, 1-(5-((1-(cyclobutylmethyl)piperidin-4-yl)methyl)pyrazolo[1,5-a]pyridin-3-yl)dihydropyrimidine-2,4(1H,3H)-dione] are 82%, 18% and 34 nM.
In the same order, the values of `O=C1CCN(c2cnn3ccc(CN4CCN(C5CCCCC5)CC4)cc23)C(=O)N1` [Example 338, 1-(5-((4-cyclohexylpiperazin-1-yl)methyl)pyrazolo[1,5-a]pyridin-3-yl)dihydropyrimidine-2,4(1H,3H)-dione] are 83%, 17% and 33 nM.
In the same order, the values of `O=C1CCN(c2cnn3ccc(CC4CCCN(CC5CCCCC5)CC4)cc23)C(=O)N1` (stereo not drawn) [Example 272, 1-(5-((1-(cyclohexylmethyl)azepan-4-yl)methyl)pyrazolo[1,5-a]pyridin-3-yl)dihydropyrimidine-2,4(1H,3H)-dione] are 69%, 31% and 25 nM.
Take `C[C@@H]1CC(CN2CCN(Cc3ccn4ncc(N5CCC(=O)NC5=O)c4c3)CC2)C[C@H](C)O1` (stereo partly drawn) [Example 193, 1-(5-((4-(((2R,6S)-2,6-dimethyltetrahydro-2H-pyran-4-yl)methyl)piperazin-1-yl)methyl)pyrazolo[1,5-a]pyridin-3-yl)dihydropyrimidine-2,4(1H,3H)-dione]: the Dmax at 25 µM worked out at 86%, the remaining activity at 25 µM is 14% and the DC50 turned out to be 10 nM.
In the same order, the values of `O=C1CCN(c2cnn3ccc(CC4CCN(CC5CCCOC5)CC4)cc23)C(=O)N1` (stereo not drawn) [Example 7, 1-(5-((1-((tetrahydro-2H-pyran-3-yl)methyl)piperidin-4-yl)methyl)pyrazolo[1,5-a]pyridin-3-yl)dihydropyrimidine-2,4(1H,3H)-dione] are 86%, 14% and 23 nM.
